Measurements as given in the NIST ThermoML archive (doi:10.1021/je800899w).
Numbers after ± are expanded uncertainties.

How the values were obtained:
[1] = 298.15 K, 101.33 kPa, Liquid; for viscosity: Capillary tube (Ostwald / Ubbelohde) method; for mass density: Vibrating tube method
[2] = refractive index (Na D-line) (dimensionless); details: 298.15 K; 101.33 kPa; Liquid; Standard Abbe refractometry
[3] = xn = mol fraction of the nth substance listed; details: 298.15 K, 101.3 kPa, Liquid; for viscosity: Capillary tube (Ostwald / Ubbelohde) method
[4] = refractive index (Na D-line) (dimensionless); xn = mol fraction of the nth substance listed; details: 298.15 K, 101.3 kPa, Liquid, Standard Abbe refractometry

CCOC(C)=O [ethyl acetate]
Details	mass density [kg/m3]	refractive index	viscosity [mPa·s]
[1]	894.4 ± 0.1	–	0.4256 ± 0.0051
[2]	–	1.36983 ± 0.00031	–

CCCCCCCCn1cc[n+](C)c1.O=S(=O)([N-]S(=O)(=O)C(F)(F)F)C(F)(F)F + CCOC(C)=O
Details	mass density, [3] [kg/m3]	refractive index, [4]	viscosity, [3] [mPa·s]
x2 = 0.0493	1314.93 ± 1.6	1.43216 ± 0.00037	78.89 ± 1.1
x2 = 0.1112	1307.34 ± 1.5	1.43115 ± 0.00036	65.93 ± 0.78
x2 = 0.1546	1301.55 ± 1.4	1.43042 ± 0.00036	58.25 ± 0.66
x2 = 0.2125	1293.1 ± 1.4	1.4293 ± 0.00035	48.82 ± 0.56
x2 = 0.3102	1276.6 ± 1.3	1.42726 ± 0.00035	34.78 ± 0.4
x2 = 0.404	1257.53 ± 1.2	1.42453 ± 0.00034	24.15 ± 0.27
x2 = 0.4779	1239.88 ± 1.1	1.42219 ± 0.00033	17.54 ± 0.2
x2 = 0.5967	1203.86 ± 0.97	1.41721 ± 0.00033	9.795 ± 0.11
x2 = 0.7035	1160.22 ± 0.81	1.41123 ± 0.00032	5.384 ± 0.062
x2 = 0.8233	1089.62 ± 0.57	1.40097 ± 0.00032	2.284 ± 0.026
x2 = 0.9016	1022.64 ± 0.35	1.391 ± 0.00032	1.233 ± 0.014

CCCCCCCCn1cc[n+](C)c1.O=S(=O)([N-]S(=O)(=O)C(F)(F)F)C(F)(F)F
Details	mass density [kg/m3]	refractive index	viscosity [mPa·s]
[1]	1320.59 ± 0.5	–	92.51 ± 1.4
[2]	–	1.43298 ± 0.00037	–

CCCCCCCCn1cc[n+](C)c1.O=S(=O)([N-]S(=O)(=O)C(F)(F)F)C(F)(F)F + CCO
Details	mass density, [3] [kg/m3]	refractive index, [4]	viscosity, [3] [mPa·s]
x2 = 0.0959	1311.29 ± 1.5	1.43164 ± 0.00036	71.28 ± 0.88
x2 = 0.1162	1309.17 ± 1.5	1.43133 ± 0.00036	67.63 ± 0.81
x2 = 0.1935	1300.29 ± 1.4	1.43016 ± 0.00035	55.53 ± 0.61
x2 = 0.2269	1296.02 ± 1.4	1.42965 ± 0.00035	51.54 ± 0.56
x2 = 0.3304	1280.78 ± 1.3	1.42766 ± 0.00034	39.23 ± 0.44
x2 = 0.4164	1265.19 ± 1.2	1.42549 ± 0.00034	29.89 ± 0.34
x2 = 0.5412	1235.17 ± 1.1	1.42143 ± 0.00033	19.92 ± 0.22
x2 = 0.6012	1216.21 ± 1	1.41886 ± 0.00032	15.86 ± 0.18
x2 = 0.7033	1173.46 ± 0.84	1.41319 ± 0.00032	10.25 ± 0.11
x2 = 0.8067	1106.85 ± 0.62	1.40447 ± 0.00032	5.83 ± 0.065
x2 = 0.8967	1010.5 ± 0.31	1.39142 ± 0.00031	3.079 ± 0.035

CCO [ethanol]
Details	refractive index	viscosity [mPa·s]
[1]	–	1.054 ± 0.012
[2]	1.35928 ± 0.00031	–

CCOC(C)=O [ethyl acetate] + CCO
Details	mass density, [3] [kg/m3]	refractive index, [4]	viscosity, [3] [mPa·s]
x1 = 0.0941	800.65 ± 0.87	1.36064 ± 0.00031	0.855 ± 0.01
x1 = 0.1919	815.09 ± 0.83	1.36193 ± 0.00031	0.692 ± 0.008
x1 = 0.2836	827.27 ± 0.79	1.36309 ± 0.00031	0.619 ± 0.007
x1 = 0.4044	841.69 ± 0.75	1.36447 ± 0.00031	0.541 ± 0.006
x1 = 0.5014	852.05 ± 0.72	1.36548 ± 0.00031	0.505 ± 0.006
x1 = 0.6085	862.53 ± 0.68	1.36649 ± 0.00031	0.467 ± 0.006
x1 = 0.6949	870.3 ± 0.66	1.36724 ± 0.00031	0.444 ± 0.005
x1 = 0.7929	878.51 ± 0.63	1.36811 ± 0.00031	0.436 ± 0.005
x1 = 0.8957	886.6 ± 0.61	1.36895 ± 0.00031	0.424 ± 0.005
